Data published in patent publication US6623933B1 (priority 1999, dated 2003).

What was measured:
[1] = test system: middle cerebral artery occlusion in rats; conditions: Weaver et al. 1997; cited from earlier work
[2] = target: T1, NR1100+NR2A NMDA receptor (Rattus norvegicus, UniProt P35439+Q00959); experiment: NMDA-induced current (INMDA), Xenopus oocytes, Example 2; assay type: cell-based; conditions: 100 μM NMDA, 100 μM steroid
T1 construct: expressed in transfected cells; host or cells: Xenopus oocytes co-injected with NR1100 and NR2A cRNA
T1 sequence (Q00959 23-1464, other chains not shown): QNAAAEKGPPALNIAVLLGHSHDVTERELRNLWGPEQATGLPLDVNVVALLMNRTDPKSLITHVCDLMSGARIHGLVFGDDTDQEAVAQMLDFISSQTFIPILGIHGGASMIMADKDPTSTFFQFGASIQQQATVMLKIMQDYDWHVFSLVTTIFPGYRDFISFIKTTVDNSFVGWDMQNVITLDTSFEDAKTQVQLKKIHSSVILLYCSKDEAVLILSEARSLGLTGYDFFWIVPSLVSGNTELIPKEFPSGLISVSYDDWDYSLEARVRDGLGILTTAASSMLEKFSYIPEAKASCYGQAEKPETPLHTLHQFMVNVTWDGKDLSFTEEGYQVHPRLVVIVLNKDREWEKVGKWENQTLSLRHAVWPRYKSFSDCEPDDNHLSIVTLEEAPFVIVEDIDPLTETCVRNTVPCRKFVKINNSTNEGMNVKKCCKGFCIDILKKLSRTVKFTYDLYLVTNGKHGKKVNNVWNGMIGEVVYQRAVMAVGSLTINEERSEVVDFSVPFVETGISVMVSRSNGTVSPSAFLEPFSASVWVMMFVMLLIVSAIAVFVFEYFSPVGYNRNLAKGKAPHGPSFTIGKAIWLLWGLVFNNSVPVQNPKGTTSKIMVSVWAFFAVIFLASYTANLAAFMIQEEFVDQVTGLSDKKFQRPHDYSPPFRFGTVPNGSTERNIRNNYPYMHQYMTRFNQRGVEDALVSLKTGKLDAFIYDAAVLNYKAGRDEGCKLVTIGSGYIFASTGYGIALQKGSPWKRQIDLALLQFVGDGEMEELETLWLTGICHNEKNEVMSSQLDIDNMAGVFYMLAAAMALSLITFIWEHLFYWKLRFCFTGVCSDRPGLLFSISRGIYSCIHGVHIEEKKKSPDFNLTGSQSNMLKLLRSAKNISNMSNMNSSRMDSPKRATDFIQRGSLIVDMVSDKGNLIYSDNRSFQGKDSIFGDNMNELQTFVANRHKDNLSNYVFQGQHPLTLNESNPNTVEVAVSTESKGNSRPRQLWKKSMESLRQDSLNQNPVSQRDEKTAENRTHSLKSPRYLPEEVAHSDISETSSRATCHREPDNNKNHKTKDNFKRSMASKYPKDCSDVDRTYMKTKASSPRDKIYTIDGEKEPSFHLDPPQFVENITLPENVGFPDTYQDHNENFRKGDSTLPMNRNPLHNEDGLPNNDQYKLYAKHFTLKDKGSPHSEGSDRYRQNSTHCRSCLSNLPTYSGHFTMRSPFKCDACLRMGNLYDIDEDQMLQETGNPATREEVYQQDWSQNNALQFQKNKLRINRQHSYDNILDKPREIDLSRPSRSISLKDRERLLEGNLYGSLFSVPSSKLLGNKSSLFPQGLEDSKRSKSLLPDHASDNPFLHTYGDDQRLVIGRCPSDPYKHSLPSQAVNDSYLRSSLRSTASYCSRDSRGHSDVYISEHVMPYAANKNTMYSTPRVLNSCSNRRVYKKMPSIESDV
Protocol: NR1100 (NR1G) and NR2A clones were kindly provided by Dr. R. S. Zukin (Albert Einstein College of Medicine, New York, N.Y.) and Dr. S. Nakanishi (Faculty of Medicine, Kyoto University, Kyoto, Japan), respectively. mRNA was prepared through in vitro transcription of NR1100 and NR2A cDNAs using the mMessage mMachine kit (Ambion, Tex.). On the day following isolation, batches of 20-40 selected Xenopus oocytes were injected with 50 nl of prepared RNA solution (0.5 ng NR1100 and 5 ng of NR2A mRNA/oocyte). Oocytes were maintained in glass petri dishes containing Barth's solution (84 mM NaCl, 1 mM KCl, 2.4 mM NaHCO3, 0.82 mM MgSO4, 0.41 mM CaCl2, 0.33 mM Ca(NO3)2, 2.5 mM pyruvate, 0.1 mg/ml gentamycin, 7.5 mM Tris/HCl, pH 7.4) in an incubator at 18° C. Oocytes were used for electrophysiological experiments 4-10 days after injection.
Recordings from oocytes were obtained using the two electrode voltage-clamp mode with an Axoclamp-2A amplifier (Axon Instruments). The resistance of microelectrodes, pulled from glass capillaries and filled with 3 M KCl solution, was 2.5-3.5 M. Membrane potential was clamped at −70 mV. Drugs were applied by a gravity-driven external perfusion system. Drug application and data acquisition were carried out with custom-written software implemented in the SuperScopeII programming language (GW Instruments, Somerville, Mass.).
The degree of modulation of NMDA-induced Ca^2+ influx, cell death, and currents is expressed as the percent change, defined as (I′/I−1)×100%, where I and I′ are the NMDA-induced responses in the absence and presence of modulator, respectively. All data are expressed as mean±standard error of the mean. Statistical significance was evaluated using 95% confidence limits unless otherwise noted.

[3] = test system: primary cultures of rat hippocampal neurons; experiment: NMDA-induced increase in [Ca2+]i, Fluo-3 AM; assay type: cell-based; conditions: 5 μM NMDA; steroid 100 μM (3α5β 50 μM)
Protocol: (§1) Principally neuronal cultures were prepared from hippocampal tissue of fetal Sprague-Dawley rats on day 18 of embryonic development, as previously described (Brewer et al., Brain Research 494: 65-74 (1989)). Briefly, hippocampal cells were dissociated by trituration in Ca^2+/Mg^2+-free Hank's basic salt solution (Gibco) supplemented with 4.2 mM bicarbonate, 1 mM sodium pyruvate, 20 mM HEPES, 3 mg/ml bovine serum albumin (BSA). Dissociated cells were then pelleted by centrifugation (500×g, 4 min). […] Cells were then plated onto poly-L-lysine-coated 24-well culture dishes (Nunclon) at a density of 15,000 cell/cm^2 and maintained in a humidified atmosphere containing 5% CO2/95% air at 37° C. After 48 h, nonneuronal cell division was inhibited by a 48 h exposure to 1 μM cytosine arabinoside. Cultures were subsequently maintained in serum-free DMEM plus defined components and were used for experiments 16 to 24 days after plating.
DMSO was also added to controls to maintain a constant final DMSO concentration of […].
(§2) All data are expressed as mean±standard error of the mean. Statistical significance was evaluated using 95% confidence limits unless otherwise noted.

[4] = test system: primary cultures of rat hippocampal neurons; experiment: NMDA-induced neuronal death, trypan blue exclusion; assay type: cell-based; conditions: acute 30 μM NMDA; steroid 100 μM (3α5β 50 μM)
Protocol: as §1
Steroids were dissolved in DMSO (0.5% final concentration), and all treatment media contained 0.5% DMSO. […] Following exposure, cultures were washed 3 times with medium from sister cultures (conditioned medium). After the final wash, steroid or vehicle was reintroduced. Drugs were added to cultures in 25 μl of conditioned medium to yield a final volume of 0.25 ml per well. Except where otherwise noted, final steroid concentration was 100 μM.
The ability of neurons to exclude trypan blue was used to quantitate cell viability (Dawson et al., Proc Natl Acad Sci USA 88: 6368-6371 (1991)). […] Cultures were then fixed with 4% paraformaldehyde in PBS for 30 min, at whichtime the fixative was replaced with PBS. The number of stained and unstained neurons were counted in 4 high-power fields per culture well, using an inverted phase contrast microscope under both bright field and phase contrast settings. Experiments were performed in triplicate, and all assessments were made with the experimenter blind to the treatment of each culture well. Percent cell death is expressed as follows: (number of trypan blue stained neurons)/(total number of neurons)×100%.
as §2

[5] = test system: primary cultures of rat hippocampal neurons; conditions: Weaver et al. 1997; cited from earlier work

Q: Which “inhibition of neuronal death after middle cerebral artery occlusion” value [1] does the source give for pregnanolone hemisuccinate [3α5βHS] here?
A: effective at inhibiting the neuronal death

Q: And the “inhibition of INMDA” value [2]?
A: about equally effective in inhibiting INMDA

Q: And the “reduction of NMDA-induced rise in [Ca2+]i” value [3]?
A: approximately 40%

Q: And the “inhibition of NMDA-induced neuronal death” value [4]?
A: 54±3%

Q: With `C[C@]12CC[C@@H]3c4ccc(O)cc4CC[C@H]3[C@@H]1CC[C@@H]2O` [17β-estradiol] as the molecule, how does the “neuroprotection against NMDA-induced neuronal death” value [5] read?
A: neuroprotective against NMDA-induced neuronal death
